Data reported in patent US20250263404A1, “AMINOPYRIDINES AS ACTIVATORS OF PI3 KINASE” (UCL Business Ltd, priority 2021, published 2025).

Molecular target: PI3Kα (Homo sapiens, UniProt P42336)
Experiment: pAKT S473 ELISA in A549 cells (PI3Kα activation)
Type: cell-based
Set-up: endogenous in cells; host or cells: A549
Settings: for EC50: A549 cells, 15 min treatment, pAKT S473 ELISA, normalised to Emax of 1 μM insulin, read-out: Av EC50; for Emax at 10 µM: A549, 0.25 h, read-out: <50% response at 10 μM
Method: EC50 values were determined by quantifying phosphorylation on S473 residues of Akt in A549 human adenocarcinoma cells by ELISA (enzyme linked immunoadsorbent assay, R&D Systems, DYC887BE). A549 cells were seeded into 96-well plates (50,000 cells/well) in DMEM supplemented with 10% foetal bovine serum and 1% penicillin-streptomyocin. Following 24 h in culture cells were starved for 24 h in serum-free DMEM before 15 minute treatment with a concentration response curve of compounds. Experimental compounds were diluted in DMSO into […] 1:3 concentration response curves in polypropylene V-bottom plates (SLS MIC9050). Concentration response curves were diluted to a 3× stock in serum-free DMEM. Standard 8-point concentration response curves were performed at 50, 16.7, 5.6, 1.9, 0.6, 0.2, 0.07, 0.02 μM and serum-free DMEM containing 0.5% DMSO was used as a negative control. […] A549 cells were seeded at 50,000 cells per well in 96-well plates in DMEM (10% FBS+1% P/S). The next day cells were washed once with PBS before addition of serum-free DMEM for 24 h. On the day of treatment cells, were incubated in fresh serum-free DMEM prior to treatment. Compounds solubilised to 10 mM in DMSO were diluted 1:3 in an 8-point concentration response curve in DMSO. Concentration response curves were diluted in serum-free DMEM by transfer into intermediate plates using a BRAVO liquid handler (Agilent). Intermediate plates were then used to treat cell plates using the BRAVO liquid handler. Compound concentration response curves had atop concentration of 50 μM and a final well concentration of 0.5% DMSO. Cell plates were treated for 15 min at 37° C., 5% CO2 before being washed with ice-cold PBS and lysed in lysis buffer 6 (R&D Systems #895561) and freezing at −80° C. Levels of pAKT-S473 were determined using the phospho-AKT (S473) pan-specific Duoset IC ELISA (R&D Systems #DYC887BE) in 96-well white high-binding plates (Corning #3922) according to manufacturer's instructions. Endpoint luminescence was measured using a Sense (Hidex) platereader. […] Data were transformed and EC50 data were determined by variable slope (4 parameters) non-linear regression using Prism 7 (Graphpad).

Sequence of PI3Kα (P42336 whole entry): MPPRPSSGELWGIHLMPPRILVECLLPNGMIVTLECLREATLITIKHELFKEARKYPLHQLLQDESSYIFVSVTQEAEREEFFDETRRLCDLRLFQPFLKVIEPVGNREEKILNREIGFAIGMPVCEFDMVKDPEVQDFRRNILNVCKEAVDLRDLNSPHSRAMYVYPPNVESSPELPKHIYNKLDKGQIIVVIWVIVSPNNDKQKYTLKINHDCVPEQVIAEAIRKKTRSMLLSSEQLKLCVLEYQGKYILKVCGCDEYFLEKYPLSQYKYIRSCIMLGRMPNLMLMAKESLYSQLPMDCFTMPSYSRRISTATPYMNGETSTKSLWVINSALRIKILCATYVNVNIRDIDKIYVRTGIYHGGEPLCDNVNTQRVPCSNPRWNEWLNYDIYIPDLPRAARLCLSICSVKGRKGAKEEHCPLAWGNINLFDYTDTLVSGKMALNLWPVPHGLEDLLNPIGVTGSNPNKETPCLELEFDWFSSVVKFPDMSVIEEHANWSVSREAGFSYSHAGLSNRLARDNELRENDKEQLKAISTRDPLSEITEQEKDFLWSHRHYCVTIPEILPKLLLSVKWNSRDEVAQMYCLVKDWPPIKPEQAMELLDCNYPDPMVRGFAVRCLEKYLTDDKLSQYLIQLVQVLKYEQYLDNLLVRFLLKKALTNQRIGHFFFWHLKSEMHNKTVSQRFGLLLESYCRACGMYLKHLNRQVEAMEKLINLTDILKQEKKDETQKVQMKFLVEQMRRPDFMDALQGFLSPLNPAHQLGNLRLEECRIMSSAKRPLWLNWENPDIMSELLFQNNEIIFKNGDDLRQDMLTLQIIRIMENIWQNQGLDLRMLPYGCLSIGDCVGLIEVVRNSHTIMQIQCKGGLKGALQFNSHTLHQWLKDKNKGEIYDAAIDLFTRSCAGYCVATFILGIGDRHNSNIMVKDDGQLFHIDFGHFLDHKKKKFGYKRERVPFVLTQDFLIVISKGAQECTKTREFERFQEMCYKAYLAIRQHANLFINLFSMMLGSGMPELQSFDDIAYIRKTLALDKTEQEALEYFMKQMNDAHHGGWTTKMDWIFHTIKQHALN
Sequence of PI3Kα (P27986 whole entry partner): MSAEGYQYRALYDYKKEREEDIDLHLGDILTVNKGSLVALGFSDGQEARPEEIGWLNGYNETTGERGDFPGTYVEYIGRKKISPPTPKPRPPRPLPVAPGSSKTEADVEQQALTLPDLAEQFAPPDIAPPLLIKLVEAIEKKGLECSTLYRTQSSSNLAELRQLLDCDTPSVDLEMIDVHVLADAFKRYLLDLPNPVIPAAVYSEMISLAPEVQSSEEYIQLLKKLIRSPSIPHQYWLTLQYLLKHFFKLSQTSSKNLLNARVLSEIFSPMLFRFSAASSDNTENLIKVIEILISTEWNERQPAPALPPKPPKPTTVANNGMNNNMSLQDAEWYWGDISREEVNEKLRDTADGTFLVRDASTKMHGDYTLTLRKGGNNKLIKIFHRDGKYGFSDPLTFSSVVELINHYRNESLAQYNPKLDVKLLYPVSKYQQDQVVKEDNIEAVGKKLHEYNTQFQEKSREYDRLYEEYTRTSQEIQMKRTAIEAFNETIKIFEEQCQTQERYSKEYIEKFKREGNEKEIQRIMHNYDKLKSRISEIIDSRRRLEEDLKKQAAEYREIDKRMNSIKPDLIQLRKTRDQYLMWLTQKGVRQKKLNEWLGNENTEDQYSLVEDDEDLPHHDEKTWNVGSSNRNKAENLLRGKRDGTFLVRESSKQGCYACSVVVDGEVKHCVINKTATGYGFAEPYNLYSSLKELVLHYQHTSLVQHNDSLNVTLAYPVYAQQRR

| Compound | EC50 [nM] | Emax at 10 µM [%] |
| --- | --- | --- |
| COc1cc(Nc2cc(Nc3ccccc3)ccn2)cc(OC)c1OC [1 (1902)] | ≥ 50000 | – |
| COc1cc(Nc2cc(Nc3ccn(C)n3)ccn2)cc(OC)c1OC [2 (1903)] | ≥ 50000 | – |
| COc1cc(N2CCN(C)CC2)ccc1Nc1cc(Nc2ccn(C)n2)ccn1 [3 (1904)] | 9710 | – |
| COc1cc(Nc2cc(Nc3cnn(C)c3)ccn2)cc(OC)c1OC [4 (1905)] | 2080 | < 50 |
| COc1cc(Nc2cc(Nc3ccc4c(c3)CCN4C(C)=O)ccn2)cc(OC)c1OC [5 (1906)] | 440 | < 50 |
| COc1cc(Nc2cc(Nc3ccc4c(c3)N(C(C)=O)CC4)ccn2)cc(OC)c1OC [6 (1907)] | 840 | < 50 |
| COc1cc(N2CCOCC2)ccc1Nc1cc(Nc2cccc3c2N(C(C)=O)CC3)ccn1 [7 (1912)] | 540 | < 50 |
| CNC(=O)c1ccccc1Nc1ccnc(Nc2ccc(N3CCN(C)CC3)cc2OC)c1 [8 (1934)] | > 50000 | < 50 |
| CNC(=O)c1ccccc1Nc1ccnc(Nc2ccc(N3CCOCC3)cc2OC)c1 [9 (1935)] | 1580 | < 50 |
| COc1cc(N2CCN(C)CC2)ccc1Nc1cc(Nc2cccc3c2N(C(C)=O)CC3)cc(C)n1 [10 (1936)] | 5360 | < 50 |
| CC(=O)N1CCc2cccc(Nc3ccnc(Nc4ccc(N5CCN(C)CC5)cc4)c3)c21 [11 (1937)] | 2640 | – |
| CCN1CCN(c2ccc(Nc3cc(Nc4cccc5c4N(C(C)=O)CC5)ccn3)cc2)CC1 [12 (1938)] | 1530 | – |
| COc1cc(N2CCCCC2)ccc1Nc1cc(Nc2cccc3c2N(C(C)=O)CC3)ccn1 [13 (1941)] | 4380 | – |
| COc1cc(N2CCN(C(C)C)CC2)ccc1Nc1cc(Nc2cccc3c2N(C(C)=O)CC3)ccn1 [14 (1942)] | 2270 | – |
| COc1cc(N2CCN(C)CC2)ccc1Nc1cc(Nc2cccc3c2N(C(=O)C(C)C)CC3)ccn1 [15 (1943)] | 2390 | – |
| COc1cc(N2CCN(C)CC2)ccc1Nc1nccc(Nc2cccc3c2N(C(C)=O)CC3)c1C [16 (1944)] | 5530 | < 50 |
| COCC(=O)N1CCc2cccc(Nc3ccnc(Nc4ccc(N5CCN(C)CC5)cc4OC)c3)c21 [17 (1950)] | 4780 | – |
| COc1cc(N2CCN(C)CC2)ccc1Nc1nccc(Nc2cccc3c2N(C(C)=O)CC3)c1F [18 (1951)] | 3080 | – |
| COc1cc(N2CCN(C)CC2)ccc1Nc1cc(Nc2cc(C)cc3c2N(C(C)=O)CC3)ccn1 [19 (1958)] | 1010 | – |
| CCC(=O)N1CCc2cccc(Nc3ccnc(Nc4ccc(N5CCN(C)CC5)cc4OC)c3)c21 [20 (1959)] | 2280 | – |

| Compound | EC50 [nM] | Emax at 10 µM [%] |
| --- | --- | --- |
| CCOCC(=O)N1CCc2cccc(Nc3ccnc(Nc4ccc(N5CCN(C)CC5)cc4OC)c3)c21 [21 (1961)] | 6680 | – |
| CC(=O)N1CCc2cccc(Nc3ccnc(Nc4cccc(N5CCN(C)CC5)c4)c3)c21 [22 (1968)] | 7850 | – |
| COc1cc(N2CCN(C)CC2)ccc1Nc1cc(Nc2ccccc2)ccn1 [23 (1971)] | 4530 | – |
| COc1cc(N2CCN(C)CC2)ccc1Nc1cc(Nc2ccc3c(c2)CCN3C(C)=O)ccn1 [24 (1989)] | 1250 | – |
| CC(=O)N1CCc2cccc(Nc3ccnc(Nc4ccc(N5CCN(C)CC5)cc4C(F)(F)F)c3)c21 [25 (1992)] | > 50000 | – |
| COc1cc(N2CCN(Cc3ccc(C)cc3)CC2)ccc1Nc1cc(Nc2cccc3c2N(C(C)=O)CC3)ccn1 [26 (1993)] | > 50000 | – |
| COCCN1CCN(c2ccc(Nc3cc(Nc4cccc5c4N(C(C)=O)CC5)ccn3)c(OC)c2)CC1 [27 (1994)] | 1300 | – |
| COc1cc(N2CCN(C)CC2)ccc1Nc1cc(Nc2cc(-c3ccccc3)nn2C)ccn1 [28 (1995)] | 1410 | < 50 |
| COc1cc(N2CCN(C)CC2)ccc1Nc1cc(Nc2cc(C(C)(C)C)nn2C)ccn1 [29 (1998)] | 890 | – |
| COc1cc(N2CCN(C)CC2)ccc1Nc1cc(Nc2cc(C(C)C)nn2C)ccn1 [30 (2000)] | 4890 | – |
| CCOc1cc(N2CCN(C)CC2)ccc1Nc1cc(Nc2cccc3c2N(C(C)=O)CC3)ccn1 [31 (2007)] | 1550 | – |
| CC(=O)N1CCc2cccc(Nc3ccnc(Nc4ccc(N5CCN(C)CC5)cc4OC(C)C)c3)c21 [32 (2008)] | 1460 | – |
| COCCOc1cc(N2CCN(C)CC2)ccc1Nc1cc(Nc2cccc3c2N(C(C)=O)CC3)ccn1 [33 (2009)] | 5230 | – |
| CC(=O)N1CCc2cccc(Nc3ccnc(Nc4cccc(Oc5ccccc5)c4)c3)c21 [34 (2010)] | > 50000 | – |
| CC(=O)N1CCc2cccc(Nc3ccnc(Nc4ccc(C(N)=O)cc4)c3)c21 [35 (2011)] | 4970 | – |
| CC(=O)N1CCc2cccc(Nc3ccnc(Nc4ccc(Oc5ccccc5)cc4)c3)c21 [36 (2013)] | 8810 | – |
| CC(=O)N1CCc2cccc(Nc3ccnc(Nc4ccc(OCc5ccccc5)cc4)c3)c21 [37 (2014)] | > 50000 | – |
| CC(=O)N1CCc2cccc(Nc3ccnc(Nc4ccc(N5CCOCC5)cc4)c3)c21 [38 (2015)] | 1320 | – |
| CC(=O)N1CCc2cccc(Nc3ccnc(Nc4ccccc4)c3)c21 [39 (2016)] | > 50000 | – |
| CC(=O)N1CCc2cccc(Nc3ccnc(Nc4ccc(C(C)(C)C)cc4)c3)c21 [40 (2017)] | 7400 | < 50 |

| Compound | EC50 [nM] | Emax at 10 µM [%] |
| --- | --- | --- |
| CC(=O)N1CCc2cccc(Nc3ccnc(Nc4ccc(C#N)cc4)c3)c21 [41 (2018)] | 1740 | < 50 |
| CNC(=O)c1ccc(Nc2cc(Nc3cccc4c3N(C(C)=O)CC4)ccn2)cc1 [42 (2019)] | 1370 | – |
| CC(=O)N1CCc2cccc(Nc3ccnc(Nc4ccc5ccccc5n4)c3)c21 [43 (2020)] | > 50000 | – |
| CC(=O)N1CCc2cccc(Nc3ccnc(Nc4cc5ccccc5cn4)c3)c21 [44 (2021)] | > 50000 | – |
| CC(=O)N1CCc2cccc(Nc3ccnc(Nc4cc(-c5ccccc5)nn4C)c3)c21 [46 (2023)] | > 50000 | – |
| CNC(=O)c1cccc(Nc2cc(Nc3cccc4c3N(C(C)=O)CC4)ccn2)c1 [47 (2026)] | 1760 | < 50 |
| CC(=O)N1CCc2cccc(Nc3ccnc(Nc4nn(C)c5ccccc45)c3)c21 [48 (2027)] | 1480 | < 50 |
| CC(=O)N1CCc2cccc(Nc3ccnc(Nc4ccc5ncccc5c4)c3)c21 [49 (2028)] | 440 | < 50 |
| COc1cc(N2CCN(C)CC2)ccc1Nc1cc(Nc2ccnc3ccccc23)ccn1 [50 (2029)] | 1360 | – |
| COc1cc(N2CCN(C)CC2)ccc1Nc1cc(Nc2ccc3scnc3c2)ccn1 [51 (2031)] | 310 | – |
| COc1cc(N2CCN(C)CC2)ccc1Nc1cc(Nc2ccc(S(C)(=O)=O)cc2)ccn1 [52 (2038)] | 3810 | – |
| COc1cc(N2CCN(C)CC2)ccc1Nc1cc(Nc2ccncn2)ccn1 [53 (2039)] | 7850 | – |
| COc1cc(N2CCN(C)CC2)ccc1Nc1cc(Nc2cccc(S(C)(=O)=O)c2)ccn1 [54 (2043)] | 1220 | – |
| COc1cc(N2CCN(C)CC2)ccc1Nc1cc(Nc2ccncc2)ccn1 [55 (2045)] | > 6120 | – |
| COc1ccc(Nc2ccnc(Nc3ccc(N4CCN(C)CC4)cc3OC)c2)cc1NC(C)=O [56 (2046)] | 1280 | – |
| COc1cc(N2CCN(C)CC2)ccc1Nc1cc(Nc2ccc3ncccc3c2)ccn1 [57 (2047)] | > 50000 | – |
| CNC(=O)c1cccc(Nc2ccnc(Nc3ccc(N4CCN(C)CC4)cc3OC)c2)c1 [58 (2049)] | 1350 | – |
| COc1cc(N2CCN(C)CC2)ccc1Nc1cc(Nc2cccc(-c3ccccn3)c2)ccn1 [59 (2052)] | 550 | < 50 |
